According to patent publication US11981661B2, “Heterocyclic compounds” (Hoffmann-La Roche Inc., priority 2020, dated 2024):

Each molecule was assayed against T1, MAGL (Homo sapiens, UniProt Q99685) (assay: 2-AG assay (MAGL inhibitory activity, hydrolysis of 2-arachidonoylglycerol followed by mass spectrometry)). Details: 50 pM MAGL, 8 μM 2-arachidonoylglycerol, 15 min preincubation, 30 min incubation at RT, concentration range 12.5 μM to 0.8 pM.
T1 sequence (Q99685 1-303): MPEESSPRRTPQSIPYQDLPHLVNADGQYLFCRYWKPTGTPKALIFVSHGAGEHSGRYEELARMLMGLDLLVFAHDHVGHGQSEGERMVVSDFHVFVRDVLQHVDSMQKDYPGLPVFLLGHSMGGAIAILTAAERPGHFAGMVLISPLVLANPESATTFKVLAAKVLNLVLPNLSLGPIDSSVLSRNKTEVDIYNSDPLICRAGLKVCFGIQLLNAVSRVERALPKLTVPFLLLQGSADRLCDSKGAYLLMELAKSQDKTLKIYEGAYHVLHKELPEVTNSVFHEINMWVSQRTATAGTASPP
Type: biochemical
In short: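 Activity derived from the arachidonic acid/d8-arachidonic acid MS intensity ratio after acetonitrile quench. Reaction: 8 μM 2-AG substrate with 50 pM MAGL, 30 min at RT, following 15 min RT compound preincubation; buffer 50 mM TRIS, 1 mM EDTA, 0.01% Tween; final compound range 12.5 μM to 0.8 pM.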
Molecule `O=C1N[C@H](CCC(=O)N2CC(c3ccc(C4CC(C(F)(F)F)C4)cc3)C2)CO1` (stereo partly drawn) [Example 133, (4R)-4-[3-Oxo-3-[3-[4-[3-(trifluoro-methyl)cyclobutyl]phenyl]azetidin-1-yl]propyl]oxazolidin-2-one] has an IC50 of 2 nM.
For `O=C1N[C@H](CCC(=O)N2CC(c3ccc(N4CC(C(F)(F)F)C4)c(F)c3)C2)CO1` [Example 134, (4R)-4-[3-[3-[3-Fluoro-4-[3-(trifluoromethyl)azetidin-1-yl]phenyl]azetidin-1-yl]-3-oxo-propyl] oxazolidin-2-one], the IC50 was 16 nM.
Work on `O=C1N[C@H](CCC(=O)N2CC(c3ccc(N4CCC(C(F)(F)F)C4)cc3)C2)CO1` (stereo partly drawn) [Example 135, (4R)-4-[3-Oxo-3-[3-[4-[3-(trifluoro-methyl)pyrrolidin-1-yl]phenyl]azetidin-1-yl]propyl] oxazolidin-2-one] yielded an IC50 of 5 nM.
`O=C1N[C@H](CCC(=O)N2CC3(CCC(Oc4ccc(C(F)(F)F)nn4)CC3)C2)CO1` [Example 136, (4R)-4-[3-Oxo-3-[7-[6-(trifluoro-methyl)pyridazin-3-yl]oxy-2-azaspiro[3.5]nonan-2-yl]propyl] oxazolidin-2-one] was tested, and the IC50 was 22 nM.
Molecule `CS(=O)(=O)c1cc(F)ccc1OC1CCC2(CC1)CN(C(=O)CC[C@@H]1COC(=O)N1)C2` [Example 137, (4R)-4-[3-[7-(4-Fluoro-2-methyl-sulfonyl-phenoxy)-2-azaspiro[3.5]nonan-2-yl]-3-oxo-propyl] oxazolidin-2-one] has an IC50 of 43 nM.
`O=C1N[C@H](CCC(=O)N2CC3(CCC(NS(=O)(=O)c4cccc(OC(F)(F)F)c4)CC3)C2)CO1` [Example 138, N-[2-[3-[(4R)-2-Oxooxazolidin-4-yl]propanoyl]-2-azaspiro[3.5]nonan-7-yl]-3-(trifluoro-methoxy)benzene-sulfonamide] showed an IC50 of 62 nM.
For `O=C1N[C@H](CCC(=O)N2CC(c3cnc(N4CC5(C4)CC(F)(F)C5)cn3)C2)CO1` [Example 139, (4R)-4-[3-[3-[5-(6,6-Difluoro-2-azaspiro[3.3]heptan-2-yl)pyrazin-2-yl]azetidin-1-yl]-3-oxo-propyl]oxazolidin-2-one], the IC50 was 123 nM.
Molecule `O=C1N[C@H](CCC(=O)N2CC(c3cnc(N4CC5(CCCC5)C4)cn3)C2)CO1` [Example 140, (4R)-4-[3-[3-[5-(2-Azaspiro[3.4]octan-2-yl)pyrazin-2-yl]azetidin-1-yl]-3-oxo-propyl]oxazolidin-2-one] has an IC50 of 28 nM.
`O=C1N[C@H](CCC(=O)N2CC(c3ccc(N4CC5(C4)CC(F)(F)C5)nc3)C2)CO1` [Example 141, (4R)-4-[3-[3-[6-(6,6-Difluoro-2-azaspiro[3.3]heptan-2-yl)-3-pyridyl]azetidin-1-yl]-3-oxo-propyl]oxazolidin-2-one] was tested, and the IC50 was 78 nM.
`O=C1N[C@H](CCC(=O)N2CC(c3ccc(N4CC5(CCCC5)C4)nc3)C2)CO1` [Example 142, (4R)-4-[3-[3-[6-(2-Azaspiro[3.4]octan-2-yl)-3-pyridyl]azetidin-1-yl]-3-oxo-propyl]oxazolidin-2-one] showed an IC50 of 13 nM.
For `O=C1N[C@H](CCC(=O)N2CC3(CCN(S(=O)(=O)c4ccc(C(F)(F)F)cc4F)CC3)C2)CO1` [Example 143, (4R)-4-[3-[7-[2-Fluoro-4-(trifluoromethyl)phenyl]sulfonyl-2,7-diazaspiro [3.5]nonan-2-yl]-3-oxo-propyl]oxazolidin-2-one], the IC50 was 190 nM.
`O=C1N[C@H](CCC(=O)N2CC(c3ccc(N4CC(O)(C(F)(F)F)C4)nc3)C2)CO1` [Example 144, (4R)-4-[3-[3-[6-[3-Hydroxy-3-(trifluoro-methyl)azetidin-1-yl]-3-pyridyl]azetidin-1-yl]-3-oxo-propyl]oxazolidin-2-one] gave an IC50 of 172 nM.
`Cc1cc(C)n(-c2ccc(C3CN(C(=O)CC[C@@H]4COC(=O)N4)C3)cc2)n1` [Example 145, (4R)-4-[3-[3-[4-(3,5-Dimethyl-pyrazol-1-yl)phenyl]azetidin-1-yl]-3-oxo-propyl]oxazolidin-2-one] showed an IC50 of 73 nM.
For `O=C1N[C@H](CCC(=O)N2CC(c3ccc(N4CCC(O)(C(F)(F)F)C4)nc3)C2)CO1` (stereo partly drawn) [Example 146, (4R)-4-[3-[3-[6-[3-Hydroxy-3-(trifluoro-methyl)pyrrolidin-1-yl]-3-pyridyl]azetidin-1-yl]-3-oxo-propyl] oxazolidin-2-one], the IC50 was 137 nM.
`O=C1N[C@H](CCC(=O)N2CC3(C2)CN(S(=O)(=O)c2ccc(C(F)(F)F)cc2)C3)CO1` [Example 147, (4R)-4-[3-Oxo-3-[2-[4-(trifluoromethyl)phenyl]sulfonyl-2,6-diazaspiro [3.3]heptan-6-yl]propyl] oxazolidin-2-one] gave an IC50 of 2270 nM.
With `O=C1N[C@H](CCC(=O)N2CC3(C2)CN(S(=O)(=O)c2ccccc2OC(F)(F)F)C3)CO1` [Example 148, (4R)-4-[3-Oxo-3-[2-[2-(trifluoro-methoxy)phenyl]sulfonyl-2,6-diazaspiro[3.3]heptan-6-yl]propyl]oxazolidin-2-one] the IC50 was 498 nM.
`O=C1N[C@H](CCC(=O)N2CC3(C2)CN(S(=O)(=O)c2cccc(OC(F)(F)F)c2)C3)CO1` [Example 149, (4R)-4-[3-Oxo-3-[2-[3-(trifluoro-methoxy)phenyl]sulfonyl-2,6-diazaspiro[3.3]heptan-6-yl]propyl]oxazolidin-2-one] gave an IC50 of 976 nM.
In the case of `O=C1N[C@H](CCC(=O)N2CC3(C2)CN(S(=O)(=O)c2ccc(OC(F)(F)F)cc2)C3)CO1` [Example 150, (4R)-4-[3-Oxo-3-[2-[4-(trifluoro-methoxy)phenyl]sulfonyl-2,6-diazaspiro[3.3]heptan-6-yl]propyl] oxazolidin-2-one], the IC50 is reported as 2140 nM.
Molecule `O=C1N[C@H](CCC(=O)N2CC3(CC(Nc4ccc(C(F)(F)F)nn4)C3)C2)CO1` [Example 151, (4R)-4-[3-Oxo-3-[6-[[6-(trifluoro-methyl)pyridazin-3-yl]amino]-2-azaspiro[3.3]heptan-2-yl]propyl] oxazolidin-2-one] has an IC50 of 1240 nM.
Molecule `O=C1N[C@H](CCC(=O)N2CC3(CC(Oc4ccc(C(F)(F)F)nn4)C3)C2)CO1` [Example 152, (4R)-4-[3-Oxo-3-[6-[6-(trifluoro-methyl)pyridazin-3-yl]oxy-2-azaspiro[3.3]heptan-2-yl]propyl] oxazolidin-2-one] has an IC50 of 1410 nM.
For `NS(=O)(=O)c1ccccc1CN1CC2(C1)CN(C(=O)CC[C@@H]1COC(=O)N1)C2` [Example 153, 2-[[2-[3-[(4R)-2-Oxooxazolidin-4-yl]propanoyl]-2,6-diazaspiro[3.3]heptan-6-yl]methyl]benzene-sulfonamide], the IC50 was 2330 nM.
Work on `O=C1N[C@H](CCC(=O)N2CC3(CC(NS(=O)(=O)c4cccc(C(F)(F)F)c4)C3)C2)CO1` [Example 154, N-[2-[3-[(4R)-2-Oxooxazolidin-4-yl]propanoyl]-2-azaspiro[3.3]heptan-6-yl]-3-(trifluoromethyl) benzene-sulfonamide] yielded an IC50 of 95 nM.
Work on `O=C1N[C@H](CCC(=O)N2CC(NCc3ccc(C(F)(F)F)cc3)C2)CO1` [Example 155, (4R)-4-[3-Oxo-3-[3-[[4-(trifluoromethyl)phenyl]methyl-amino]azetidin-1-yl]propyl] oxazolidin-2-one] yielded an IC50 of 284 nM.
For `O=C1N[C@H](CCC(=O)N2CC(NCc3cc(C(F)(F)F)ccc3F)C2)CO1` [Example 156, (4R)-4-[3-[3-[[2-Fluoro-5-(trifluoro-methyl)phenyl]methylamino]azetidin-1-yl]-3-oxo-propyl] oxazolidin-2-one], the IC50 was 279 nM.
In the case of `CS(=O)(=O)c1cc(F)ccc1CC1CC2(C1)CN(C(=O)CC[C@@H]1COC(=O)N1)C2` [Example 157, (4R)-4-[3-[6-[(4-Fluoro-2-methylsulfonyl-phenyl)methyl]-2-azaspiro[3.3]heptan-2-yl]-3-oxo-propyl]oxazolidin-2-one], the IC50 is reported as 25 nM.
`O=C1N[C@H](CCC(=O)N2CCC(CNS(=O)(=O)c3ccc(C(F)(F)F)cc3)CC2)CO1` [Example 158, N-[[1-[3-[(4R)-2-Oxooxazolidin-4-yl]propanoyl]-4-piperidyl]methyl]-4-(trifluoro-methyl)benzene-sulfonamide] was tested, and the IC50 was 582 nM.
For `O=C1N[C@H](CCC(=O)N2CCC(CNS(=O)(=O)c3ccc(OC(F)(F)F)cc3)CC2)CO1` [Example 159, N-[[1-[3-[(4R)-2-Oxooxazolidin-4-yl]propanoyl]-4-piperidyl]methyl]-4-(trifluoro-methoxy)benzene-sulfonamide], the IC50 was 434 nM.
`CC1(O)CN(c2ccc(C3CN(C(=O)CC[C@@H]4COC(=O)N4)C3)cn2)C1` [Example 160, (4R)-4-[3-[3-[6-(3-Hydroxy-3-methyl-azetidin-1-yl)-3-pyridyl]azetidin-1-yl]-3-oxo-propyl]oxazolidin-2-one] showed an IC50 of 1330 nM.
With `O=C1N[C@H](CCC(=O)N2CC(c3ccc(N4CC(C(F)(F)F)C4)nc3)C2)CO1` [Example 161, (4R)-4-[3-Oxo-3-[3-[6-[3-(trifluoro-methyl)azetidin-1-yl]-3-pyridyl]azetidin-1-yl]propyl]oxazolidin-2-one] the IC50 was 65 nM.
Molecule `CN(Cc1ccc(C(F)(F)F)cc1F)C1CN(C(=O)CC[C@@H]2COC(=O)N2)C1` [Example 162, (4R)-4-[3-[3-[[2-Fluoro-4-(trifluoromethyl)phenyl]methyl-methyl-amino]azetidin-1-yl]-3-oxo-propyl] oxazolidin-2-one] has an IC50 of 108 nM.
Molecule `O=C1N[C@H](CCC(=O)N2CC(c3ccc(C4CC5(CCC5)C4)nc3)C2)CO1` [Example 163, (4R)-4-[3-Oxo-3-[3-(6-spiro[3.3]heptan-2-yl-3-pyridyl)azetidin-1-yl]propyl] oxazolidin-2-one] has an IC50 of 9 nM.
